Source: patent US20230096517A1, “GLUTARIMIDE SKELETON-BASED COMPOUNDS AND APPLICATION THEREOF” (SHANGHAITECH UNIVERSITY, priority 2020, published 2023)

Tested on: MM.1S cells
Assay: Proliferation inhibition (IC50) in multiple myeloma cells, cell viability with WST/CCK-8 reagent;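 also: MM.1S B-lymphoblast cells at 15,000 per well in 100 µL serum-containing RPMI1640, experiment run more than three times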
Settings: Homo sapiens, MM1.S, 72 h, read-out: IC50 (half inhibitory concentration)
Method: Multiple myeloma cell line: MM.1S (B lymphoblast), purchased from ATCC (American Type Culture Collection). Culture medium was RPMI1640 supplemented with 10% FBS and 1% Penicillin-Streptomycin. The cells used were identified as correct cells by STR cells and negative for mycoplasma by routine inspections.
IC50 values of the compounds of the present disclosure were measured using Cell Titer Blue, Cell Titer GLO, or WST reagent from Promega Company. Assay details are as follows: Cells were seeded in 100 μL RPMI1640 complete medium containing serum at a density of 15,000 cells/well.
The experiment was repeated more than three times.

SMILES | IC50 [nM]
O=C1CCC(N2Cc3cc(CCCCCCCCNC45CC6CC(CC(C6)C4)C5)ccc3C2=O)C(=O)N1 (centres unmarked) [SIAIS271187, 3-(5-(8-((adamantan-1-yl)amino)octyl)-1-oxoisoindolin-2-yl)piperidine-2,6-dione] | 17
O=C1CCC(N2Cc3c(NCCCCCCCN4CCCCC4)cccc3C2=O)C(=O)N1 (centres unmarked) [SIAIS1220125, 3-(1-oxo-4-((7-(piperidin-1-yl)heptyl)amino)isoindolin-2-yl)piperidine-2,6-dione, reference compound] | 697
O=C1CCC(N2C(=O)c3cccc(NCCCCCCCN4CCCCC4)c3C2=O)C(=O)N1 (centres unmarked) [SIAIS1221047, 2-(2,6-dioxopiperidin-3-yl)-4-((7-(piperidin-1-yl)heptyl)amino)isoindoline-1,3-dione, reference compound] | 0.78
O=C1CCC(N2C(=O)c3cccc(OCCCCCCCN4CCCCC4)c3C2=O)C(=O)N1 (centres unmarked) [SIAIS1221079, 2-(2,6-dioxopiperidin-3-yl)-4-((7-(piperidin-1-yl)heptyl)oxy)isoindoline-1,3-dione, reference compound] | 65.9
O=C1CCC(N2Cc3c(CCCCCCCCN4CCCCC4)cccc3C2=O)C(=O)N1 (centres unmarked) [SIAIS1221107, 3-(1-oxo-4-(8-(piperidin-1-yl)octyl)isoindolin-2-yl)piperidine-2,6-dione, reference compound] | 3.93
O=C1CCC(N2Cc3c(OCCCCCCCN4CCCCC4)cccc3C2=O)C(=O)N1 (centres unmarked) [SIAIS1221109, 3-(1-oxo-4-((7-(piperidin-1-yl)heptyl)oxy)isoindolin-2-yl)piperidine-2,6-dione, reference compound] | 17.6
CC1(C)[C@@H]2CC[C@@]1(C)[C@@H](NCc1ccc(CNc3cccc4c3C(=O)N(C3CCC(=O)NC3=O)C4=O)cc1)C2 (stereo partly drawn) [SIAIS1221173, 2-(2,6-dioxopiperidin-3-yl)-4-((4-((((1R,2S,4R)-1,7,7-trimethylbicyclo[2.2.1]heptan-2-yl)amino)methyl)benzyl)amino)isoindoline-1,3-dione] | 1.09
O=C1CCC(N2Cc3c(OCCCCCCCNC4CCCCC4)cccc3C2=O)C(=O)N1 (centres unmarked) [SIAIS1221187, 3-(4-((7-(cyclohexylamino)heptyl)oxy)-1-oxoisoindolin-2-yl)piperidine-2,6-dione] | 1.13
CC1(C)[C@@H]2CC[C@@]1(C)[C@@H](NCCCCCCCOc1cccc3c1CN(C1CCC(=O)NC1=O)C3=O)C2 (stereo partly drawn) [SIAIS1221189, 3-(1-oxo-4-((7-(((1R,2S,4R)-1,7,7-trimethylbicyclo[2.2.1]heptan-2-yl)amino)heptyl)oxy)isoindolin-2-yl)piperidine-2,6-dione] | 1.2
O=C1CCC(N2Cc3c(CCCCCCCCNC4CCCCC4)cccc3C2=O)C(=O)N1 (centres unmarked) [SIAIS1221193, 3-(4-(8-(cyclohexylamino)octyl)-1-oxoisoindolin-2-yl)piperidine-2,6-dione] | 0.854
O=C1CCC(N2Cc3c(CCCCCCCNCC45CC6CC(CC(C6)C4)C5)cccc3C2=O)C(=O)N1 (centres unmarked) [SIAIS1222021, 3-(4-(7-(((adamantan-1-yl)methyl)amino)heptyl)-1-oxoisoindolin-2-yl)piperidine-2,6-dione] | 0.781
O=C1CCC(N2Cc3c(NCc4ccc(CNC56CC7CC(CC(C7)C5)C6)cc4)cccc3C2=O)C(=O)N1 (centres unmarked) [SIAIS1222025, 3-(4-((4-(((adamantan-1-yl)amino)methyl)benzyl)amino)-1-oxoisoindolin-2-yl)piperidine-2,6-dione] | 3.24
CN(CCCCCCCCc1cccc2c1CN(C1CCC(=O)NC1=O)C2=O)C12CC3CC(CC(C3)C1)C2 (centres unmarked) [SIAIS1222031, 3-(4-(8-((adamantan-1-yl)(methyl)amino)octyl)-1-oxoisoindolin-2-yl)piperidine-2,6-dione] | 0.27
CC1(C)[C@@H]2CC[C@@]1(C)[C@@H](NCCCCCCCNc1cccc3c1C(=O)N(C1CCC(=O)NC1=O)C3=O)C2 (stereo partly drawn) [SIAIS1222041, 2-(2,6-dioxopiperidin-3-yl)-4-((7-(((1R,2S,4R)-1,7,7-trimethylbicyclo[2.2.1]heptan-2-yl)amino)heptyl)amino)isoindoline-1,3-dione] | 0.383
O=C1CCC(N2Cc3c(CCc4ccc(CNC56CC7CC(CC(C7)C5)C6)cc4)cccc3C2=O)C(=O)N1 (centres unmarked) [SIAIS1222051, 3-(4-(4-(((adamantan-1-yl)amino)methyl)phenethyl)-1-oxoisoindolin-2-yl)piperidine-2,6-dione] | 4.1
O=C1CCC(N2Cc3c(CCc4ccc(CNCC56CC7CC(CC(C7)C5)C6)cc4)cccc3C2=O)C(=O)N1 (centres unmarked) [SIAIS1222053, 3-(4-(4-((((adamantan-1-yl)methyl)amino)methyl)phenethyl)-1-oxoisoindolin-2-yl)piperidine-2,6-dione] | 1.61
CC1(C)[C@@H]2CC[C@@]1(C)[C@@H](NCc1ccc(CCc3cccc4c3CN(C3CCC(=O)NC3=O)C4=O)cc1)C2 (stereo partly drawn) [SIAIS1222055, 3-(1-oxo-4-(4-((((1R,2S,4R)-1,7,7-trimethylbicyclo[2.2.1]heptan-2-yl)amino)methyl)phenethyl)isoindolin-2-yl)piperidine-2,6-dione] | 0.239
O=C1CCC(N2Cc3c(OCCCCCCNCC45CC6CC(CC(C6)C4)C5)cccc3C2=O)C(=O)N1 (centres unmarked) [SIAIS1222165, 3-(4-((6-(((adamantan-1-yl)methyl)amino)hexyl)oxy)-1-oxoisoindolin-2-yl)piperidine-2,6-dione] | 0.204

More lines, now with the values ahead:

IC50 [nM] | SMILES
1.43 | O=C1CCC(N2C(=O)c3ccc(NCCCCCCCNC45CC6CC(CC(C6)C4)C5)cc3C2=O)C(=O)N1 (centres unmarked) [SIAIS1221055, 5-((7-((adamantan-1-yl)amino)heptyl)amino)-2-(2,6-dioxopiperidin-3-yl)isoindoline-1,3-dione]
5.53 | O=C1CCC(N2C(=O)c3cccc(OCCCCCCCNC45CC6CC(CC(C6)C4)C5)c3C2=O)C(=O)N1 (centres unmarked) [SIAIS1221077, 4-((7-((adamantan-1-yl)amino)heptyl)oxy)-2-(2,6-dioxopiperidin-3-yl)isoindoline-1,3-dione]
1.51 | O=C1CCC(N2Cc3c(NCCCCCCCNC45CC6CC(CC(C6)C4)C5)cccc3C2=O)C(=O)N1 (centres unmarked) [SIAIS1221091, 3-(4-((7-((adamantan-1-yl)amino)heptyl)amino)-1-oxoisoindolin-2-yl)piperidine-2,6-dione]
2.21 | O=C1CCC(N2Cc3c(C#CCCCCCCNC45CC6CC(CC(C6)C4)C5)cccc3C2=O)C(=O)N1 (centres unmarked) [SIAIS1221095, 3-(4-(8-((adamantan-1-yl)amino)oct-1-yn-1-yl)-1-oxoisoindolin-2-yl)piperidine-2,6-dione]
0.044 | O=C1CCC(N2Cc3c(CCCCCCCCNC45CC6CC(CC(C6)C4)C5)cccc3C2=O)C(=O)N1 (centres unmarked) [SIAIS1221105, 3-(4-(8-((adamantan-1-yl)amino)octyl)-1-oxoisoindolin-2-yl)piperidine-2,6-dione]
2.46 | O=C1CCC(N2C(=O)c3cccc(NCc4ccc(CNC56CC7CC(CC(C7)C5)C6)cc4)c3C2=O)C(=O)N1 (centres unmarked) [SIAIS1222035, 4-((4-(((adamantan-1-yl)amino)methyl)benzyl)amino)-2-(2,6-dioxopiperidin-3-yl)isoindoline-1,3-dione]
0.13 | O=C1CCC(N2C(=O)c3cccc(NCCCCCCNCC45CC6CC(CC(C6)C4)C5)c3C2=O)C(=O)N1 (centres unmarked) [SIAIS1222037, 4-((6-(((adamantan-1-yl)methyl)amino)hexyl)amino)-2-(2,6-dioxopiperidin-3-yl)isoindoline-1,3-dione]
0.326 | O=C1CCC(N2C(=O)c3cccc(NCCCCCCCNC4CCCCC4)c3C2=O)C(=O)N1 (centres unmarked) [SIAIS1222039, 4-((7-(cyclohexylamino)heptyl)amino)-2-(2,6-dioxopiperidin-3-yl)isoindoline-1,3-dione]
3.78 | O=C1CCC(N2Cc3c(NCCCCCCCCNC45CC6CC(CC(C6)C4)C5)cccc3C2=O)C(=O)N1 (centres unmarked) [SIAIS1222045, 3-(4-((8-((adamantan-1-yl)amino)octyl)amino)-1-oxoisoindolin-2-yl)piperidine-2,6-dione]
13 | O=C1CCC(N2Cc3c(C#CCCCCCCCNC45CC6CC(CC(C6)C4)C5)cccc3C2=O)C(=O)N1 (centres unmarked) [SIAIS1222047, 3-(4-(9-((adamantan-1-yl)amino)non-1-yn-1-yl)-1-oxoisoindolin-2-yl)piperidine-2,6-dione]
1.26 | O=C1CCC(N2Cc3c(NCCCCCCNCC45CC6CC(CC(C6)C4)C5)cccc3C2=O)C(=O)N1 (centres unmarked) [SIAIS1222073, 3-(4-((6-(((adamantan-1-yl)methyl)amino)hexyl)amino)-1-oxoisoindolin-2-yl)piperidine-2,6-dione]
1.58 | O=C1CCC(N2C(=O)c3cccc(NCCCCCCNC45CC6CC(CC(C6)C4)C5)c3C2=O)C(=O)N1 (centres unmarked) [SIAIS1222093, 4-((6-((adamantan-1-yl)amino)hexyl)amino)-2-(2,6-dioxopiperidin-3-yl)isoindoline-1,3-dione]
1.1 | O=C1CCC(N2C(=O)c3cccc(NCCCCCNC45CC6CC(CC(C6)C4)C5)c3C2=O)C(=O)N1 (centres unmarked) [SIAIS1222095, 4-((5-((adamantan-1-yl)amino)pentyl)amino)-2-(2,6-dioxopiperidin-3-yl)isoindoline-1,3-dione]
2.11 | O=C1CCC(N2Cc3c(OCCCCCCNC45CC6CC(CC(C6)C4)C5)cccc3C2=O)C(=O)N1 (centres unmarked) [SIAIS1222163, 3-(4-((6-((adamantan-1-yl)amino)hexyl)oxy)-1-oxoisoindolin-2-yl)piperidine-2,6-dione]

Same assay, conditions: Homo sapiens, MM1.S, 72 h, read-out: IC50 (half inhibitory concentration), MM.1S multiple myeloma cells, WST reagent, 72 h treatment

IC50 [nM] | SMILES
0.16 ± 0.03 | O=C1CCC(N2C(=O)c3cccc(NCCCCCCCNC45CC6CC(CC(C6)C4)C5)c3C2=O)C(=O)N1 (centres unmarked) [SIAIS1221053, 4-((7-((adamantan-1-yl)amino)heptyl)amino)-2-(2,6-dioxopiperidin-3-yl)isoindoline-1,3-dione]
~0.09 | O=C1CCC(N2Cc3c(OCCCCCCCNC45CC6CC(CC(C6)C4)C5)cccc3C2=O)C(=O)N1 (centres unmarked) [SIAIS1221111, 3-(4-((7-((adamantan-1-yl)amino)heptyl)oxy)-1-oxoisoindolin-2-yl)piperidine-2,6-dione]

Same assay, conditions: read-out: IC50 (half inhibitory concentration); MM.1S multiple myeloma cells, WST reagent, 72 h treatment

IC50 [nM] | SMILES
0.089 | O=C1CCC(N2Cc3c(OCCCCCCCNC45CC6CC(CC(C6)C4)C5)cccc3C2=O)C(=O)N1 (centres unmarked) [SIAIS1221111, 3-(4-((7-((adamantan-1-yl)amino)heptyl)oxy)-1-oxoisoindolin-2-yl)piperidine-2,6-dione]
